{"source": "patent US7439242B2", "about": "“PPARγ modulators” (Amgen Inc., priority 1998, dated 2008)", "note": "pIC50: −log10 of the molar value.", "data": [{"target": "T1, PPARγ (Homo sapiens, UniProt P37231)", "T1 construct": "made in house", "T1 sequence (P37231 1-505)": "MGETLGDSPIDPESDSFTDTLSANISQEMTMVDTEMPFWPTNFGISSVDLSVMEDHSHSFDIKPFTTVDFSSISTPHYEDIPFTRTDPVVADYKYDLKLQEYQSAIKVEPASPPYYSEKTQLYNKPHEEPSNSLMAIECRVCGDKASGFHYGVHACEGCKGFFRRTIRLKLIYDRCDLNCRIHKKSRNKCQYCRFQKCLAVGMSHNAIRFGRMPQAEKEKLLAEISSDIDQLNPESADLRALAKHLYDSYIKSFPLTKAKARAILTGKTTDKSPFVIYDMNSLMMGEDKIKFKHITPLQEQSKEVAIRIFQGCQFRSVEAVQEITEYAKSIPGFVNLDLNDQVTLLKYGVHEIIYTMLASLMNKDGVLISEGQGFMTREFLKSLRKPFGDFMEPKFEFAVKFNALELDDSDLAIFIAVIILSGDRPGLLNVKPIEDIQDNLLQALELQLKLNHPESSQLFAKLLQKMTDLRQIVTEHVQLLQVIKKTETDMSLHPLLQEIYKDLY", "assay": "PPARγ ligand binding assay utilizing [3H]-BRL 49653 as the radioligand", "settings": "concentration of test compound required to reduce by 50% the specific binding of [3H]-BRL 49653; methods similar to Lehmann et al.", "from_the_text": "The compounds of the present invention can be evaluated for modulation of the PPARγ receptor using assays such as those described in Jiang, et al., Nature 391:82-86 (1998), Ricote, et al., Nature 391:79-82 (1998) and Lehmann, et al., J. Biol. Chem. 270(12): 12953-12956 (1995). Alternatively, the compounds can be evaluated for their ability to displace radiolabeled BRL 49653 from a PPARγ-GST fusion protein as follows:\nPPARγ-GST fusion protein (prepared according to standard procedures), [^3H]—BRL 49653 having 50 Ci/mmol specific activity, Polyfiltronics Unifilter 350 filtration plate and glutathione-Sepharose® beads (from Pharmacia: washed twice with 10×binding buffer in which BSA and DTT can be left out).\nBinding buffer (10 mM Tris-HCl, pH 8.0, 50 mM KCl, 10 mM DTT, 0.02% BSA and 0.01% NP-40) is added in 80 microliter amounts to the wells of the filtration plate. The test compound is then added in 10 microliters of DMSO. The PPARγ-GST fusion protein and radiolabeled BRL compound are premixed in binding buffer containing 10 mM DTT and added in 10 microliter amounts to the wells of the plate to provide final concentrations of 1 μg/well of PPARγ-GST fusion protein and 10 nM [^3H]—BRL 49653 compound. The plate is incubated for 15 minutes. Glutathione-agarose bead is added in 50 μL of binding buffer, and the plate is vigorously shaken for one hour. The plate is washed four times with 200 μL/well of binding buffer (without BSA and DTT). The bottom of the plate is sealed and 200 μL/well of scintillation cocktail is added. The top of the plate is then sealed and the radioactivity is determined.\nIC50 values are defined as the concentration of test compounds required to reduce by 50% the specific binding of [^3H]-BRL 49653.", "values": [{"smiles": "CCOC(=O)c1cc(NS(=O)(=O)c2cc(Br)ccc2OC)ccc1Oc1cncc(Cl)c1", "note": "[Example 3, ethyl 5-(2-methoxy-5-bromobenzenesulfonamido)-2-(3-chloro-5-pyridyloxy)benzoate]", "pIC50": 6.82}, {"smiles": "CCOC(=O)c1cc(NS(=O)(=O)c2ccc(OC)c(OC)c2)ccc1Oc1cncc(Cl)c1", "note": "[Example 4, ethyl 5-(3,4-dimethoxy-benzenesulfonamido)-2-(3-chloro-5-pyridyloxy)benzoate]", "pIC50": 6.52}, {"smiles": "CCOC(=O)c1cc(NS(=O)(=O)c2cc([N+](=O)[O-])ccc2C)ccc1Oc1cncc(Cl)c1", "note": "[Example 5, ethyl 5-(2-methyl-5-nitrobenzenesulfonamido)-2-(3-chloro-5-pyridyloxy)benzoate]", "pIC50": 6.10}, {"smiles": "CCOC(=O)c1cc(NS(=O)(=O)c2c(Cl)cccc2Cl)ccc1Oc1cncc(Cl)c1", "note": "[Example 6, ethyl 5-(2,6-dichlorobenzenesulfonamido)-2-(3-chloro-5-pyridyloxy)benzoate]", "pIC50": 5.22}, {"smiles": "CCOC(=O)c1cc(NS(=O)(=O)c2c(C)cc(Cl)cc2Cl)ccc1Oc1cncc(Cl)c1", "note": "[Example 7, ethyl 5-(2,4-dichloro6-methylbenzenesulfonamido)-2-(3-chloro5-pyridyloxy)benzoate]", "pIC50": 6.10}]}, {"test_system": "not given", "assay": "not given", "settings": "not given", "units": {"melting point": "°C"}, "values": [{"smiles": "CCOC(=O)c1cc(NS(=O)(=O)c2ccc(C(F)(F)F)cn2)ccc1Oc1cncc(Cl)c1", "note": "[Example 21, ethyl 5-(5-trifluoromethyl-2-pyridinesulfonamido)-2-(3-chloro-5-pyridyloxy)benzoate]", "melting point": "133 to 135"}, {"smiles": "CCOC(=O)c1cc(NS(=O)(=O)c2ccc(Cl)nc2)ccc1Oc1cncc(Cl)c1", "note": "[Example 24, ethyl 5-(6-chloro-3-pyridinesulfonamido)-2-(3-chloro-5-pyridyloxy)benzoate]", "melting point": "166 to 168"}, {"smiles": "CCOC(=O)c1cc(NS(=O)(=O)c2cccnc2)ccc1Oc1cncc(Cl)c1", "note": "[Example 25, ethyl 5-(3-pyridinesulfonamido)-2-(3-chloro-5-pyridyloxy)benzoate]", "melting point": "120 to 122"}, {"smiles": "O=S(=O)(Nc1ccccc1Oc1cncc(Cl)c1)c1ccc(Cl)cc1Cl", "note": "[Example 32, 1-(3-chloro-5-pyridyloxy)-2-(2,4-dichlorobenzenesulfonamido)benzene]", "melting point": "168 to 170"}, {"smiles": "CCOC(=O)c1cc(S(=O)(=O)Nc2ccc(Cl)cc2Cl)ccc1Oc1cncc(Cl)c1", "note": "[Example 40, ethyl 2-(3-chloro-5-pyridyloxy)-5-(2,4-dichlorophenylaminosulfonyl)benzoic acid]", "melting point": "153 to 155"}, {"smiles": "CCOC(=O)c1cc(NC(=O)c2ccc(Cl)cc2Cl)ccc1Oc1cncc(Cl)c1", "note": "[Example 41, ethyl 5-(2,4-dichlorobenzamido)-2-(3-chloro-5-pyridyloxy)benzoate]", "melting point": "125 to 127"}, {"smiles": "O=S(=O)(Nc1cc(C(F)(F)F)ccc1Oc1cncc(Cl)c1)c1ccc(Cl)cc1Cl", "note": "[Example 43, 4-(3-chloro-5-pyridyloxy)-3-(2,4-dichlorobenzenesulfonamido)benzotrifluoride]", "melting point": "150 to 151.5"}]}]}
